Measured values reported in patent US5484924A, “Imidazonaphthyridine derivatives” (Kyowa Hakko Kogyo Co., Ltd., priority 1991, dated 1996).

System: tracheae from guinea pigs
Experiment: passive Shultz-Dale reaction (broncho-dilative activity), relaxation of antigen-contracted tracheal strips
Design: species or system Male Hartley guinea pigs
Details: Cavia porcellus; concentration of 50% relaxation; passively sensitized guinea pig tracheal zig-zag strips, 37° C., antigen (egg white albumin) 1 μg/ml
Procedure: Effect on passive Shultz-Dale reaction (broncho-dilative activity)
Male Hartley guinea pigs weighing 350 to 500 g were passively sensitized by intraperitoneal injection of rabbit anti-OA serum prepared in advance by the method of Koda et al. [Folia Pharmacol., Japon 66, 237, (1970)]. After 24 hours, tracheae were removed from guinea pigs and used for experiment. The zig-zag strips of the tracheae were prepared by the method of Emmerson and Mackay [J. Pharm. Pharmacol., 31, 798, (1979)]. The strips were suspended in Krebs-Henseleit solution at 37° C. under aeration of a mixed gas of 95% oxygen and 5% carbon dioxide, and equilibrated for one hour. Then, antigen (egg white albumin) was introduced in the solution (final concentration; 1 μg/ml), and the contraction was measured by isotonic transducer (TD-112s, made by Nihon Kohden K. K., Japan) and recorded on a recorder (Type 3066, made by Yokogawa-Hokushin Denki, K. K. Japan). After the contraction curves reached a plateau, the test compounds were successively added in order to get cumulative concentration-relaxation curves. The concentration of 50% relaxation rate (IC50) was calculated from the regression line, which was obtained from the cumulative concentration-relaxation curves.

`S=c1c2[nH]cnc2c2cccnc2n1-c1ccccc1` [Compound 1, 5-Phenyl-3H-imidazo[4,5-c][1,8]naphthyridin-4(5H)-thione] was tested, and the IC50 was 4.8 µM.
